Experimental data reported in patent publication US9266813B2, “Stilbenoid compound as inhibitor for squamous carcinoma and hepatoma and uses thereof” (AnnCare Bio-Tech Center Inc., priority 2013, dated 2016).
≈ marks a conversion by molar mass, not a printed value. Read-outs that look alike come from different tables or passages of the source.

Key:
CAR xenograft = assay: Xenograft antitumor study in CAR xenograft nude mice; type: in vivo, BALB/c nude mice
Source text: All animal experiments of the invention complied with institutional guidelines (Affidavit of Approval of Animal Use Protocol) approved by the Institutional Animal Care and Use Committee (IACUC) of China Medical University (Taichung, Taiwan). All pathogen-free four-week-old male BALB/c nude mice were purchased from the National Laboratory Animal Center (Taipei, Taiwan). These animals were housed at a constant room temperature with a regular 12-hour light/12-hour dark cycle and hereafter fed a standard rodent diet and water ad libitum.
The CAR cells (1×10^7 cells/mouse) in 0.2 mL (1:1) cultural medium and Matrigel (BD Biosciences) were subcutaneously injected into the flank of nude mice. When xenograft tumors reached approximately 50 mm^3 (at day 22 after cell inoculation), thirty two mice were randomly divided into four groups with eight mice in each group. The experimental group were given oral treatments included compound 2-4 at the dosages of 25, 50 and 100 mg/kg body weight, respectively, using an everyday 30 times (dosing regimen: QD×30, p.o.); whereas control group were given orally with 30 μL of DMSO throughout the experimental period. The tumor size (mm^3) from each mouse was determined utilizing a caliper by calculating as 0.5×length×(width)^2. At the end of treatment, all animals were anaesthetized by carbon dioxide (CO2) and sacrificed on 31st day. The tumor tissues from each mouse were removed then measured and weighed individually as previously reported.
Compound 2-4 was evaluated in the CAR xenograft nude mice by oral route (p.o.) at dose of 25, 50, and 100 mg/kg/day in a schedule of QD×30. […] At the 100 mg/kg/day dose of compound 2-4, the weight of CAR tumor was reduced down to 22% that of the vehicle control (FIG. 5).

Water solubility assay = type: physicochemical; conditions: read-out: Water solubility, Content
Source text: The water solubility of the compounds of the present invention can be determined by methods known in the art and the result is shown in Table 3.

[1] = Biochemical analysis of blood of CAR xenograft mice after 30 days of treatment; type: in vivo, BALB/c nude mice
Procedure: All mice were monitored the relative toxicity of each group after the animals were sacrificed, and whole blood samples were drawn from the heart for biochemical measurements to evaluate the safety of compound 2-4. Briefly, blood was collected from each mouse and allowed to clot and centrifuged at 1000×g for 10 minutes at room temperature for further biochemical tests including total protein, albumin, creatinine, blood urea nitrogen (BUN), uric acid and glucose.
Furthermore, after 30 days of treatment, these mice were sacrificed and their blood samples were collected for biochemical quantification of total protein, albumin, creatinine, blood urea nitrogen, uric acid and glucose.

CAR cells = assay: MTT assay, antiproliferation on cisplatin-resistant head and neck squamous carcinoma (CAR) cells; type: cell-based, human; conditions: for IC50: Homo sapiens, CAR cells, MTT
Procedure: The human head and neck carcinoma cell line CAL27 was obtained from American Tissue Culture Collection (ATCC). The cisplatin-resistant cell line CAR (CAL27-cisplatin resistance) was established by clonal selection of CAL27 using 10 cycles of 1 passage treatment with 10-80 μM of cisplatin (Sigma-Aldrich Corp. (St. Louis, Mo., USA) followed by a recovery period of another passage. CAR cells were cultivated in Dulbecco's modified Eagle's medium (DMEM) supplemented with 10% FBS, 100 μg/mL streptomycin, 100 U/mL penicillin G, 2 mM L-glutamine (Gibco by Life Technologies (Carlsbad, Calif., USA)) and 80 μM of cisplatin (Sigma-Aldrich Corp. (St. Louis, Mo., USA).
(§1) Antiproliferations of compound 2-4 were determined by an improved MTT assay. The CAR cells were individually plated at a density of 2×10^4 cells/well onto 96-well plates and treated with Dimethyl sulfoxide (DMSO) alone (0.5% (v/v) in media served as a vehicle control) and various concentrations (0, 25, 50, 75 and 100 μM) of compound 2-4 for 24 and 48 hours. Following the above treatments, the supernatant was discarded before a 100 μL solution of MTT (500 μg/ml) was added to each well for 4 hours at 37 °C. After incubation, the medium was replaced by the addition of 200 μL DMSO to solubilize the violet formazan crystal produced from MTT. The absorbance of the dissolved formazan grained within the cells was measured at 570 nm by a microplate reader to calculate viability (data shown as % of control).
(§2) Please refer to Table 1. Hep3B cells and CAR cells were treated by different concentrations of the compounds of the invention for 48 and 72 hours, and the antiprolifieration effect of such compounds was evaluated using MTT assay. Data are presented as IC50 (μM), the concentration of 50% proliferation-inhibitory effect.
MTT assay was utilized and CAR cells were treated with compound 2-4 in different concentration for 24, 48 and 72 hours. […] The IC50 after 72 hours of treatment was 50 μM.

Hep3B cells = assay: MTT assay, antiproliferation on Hep3B cells; type: cell-based; conditions: for IC50: Homo sapiens, Hep3B cells, MTT
Procedure: as §1, §2
The anti-proliferative ability of compound 2-4 in hepatocellular carcinoma was evaluated in Hep3B cells using MTT assay. Hep3B cells were treated with various concentrations of compound 2-4 for 48 and 72 hours.

[2] = test system: Human normal gingival fibroblasts cells (HGF); assay: MTT viability of normal gingival fibroblasts (HGF); type: cell-based; conditions: 0, 25, 50 and 100 μM, 72 hours, FIG. 7 (A)
Procedure: (§3) Human normal gingival fibroblasts cells (HGF) and human normal oral keratinocyte cells (OK) were acquired from Department of Dental Hygiene, China Medical University, Taiwan. HGF and OK were cultivated in DMEM.
(§4) Both HGF and OK cells (1×10^4 cells) were placed into a 96-well plate and were incubated with 0, 25, 50 and 100 μM of compound 2-4 for 24, 48 and 72 hours. For incubation with the autophagy inhibitor, cells were pretreated with […] (3-MA, 10 mM) for 1 hour, followed by treatment with or without compound 2-4 (50 and 75 μM) for 48 hours. After washing the cells, DMEM containing MTT (0.5 mg/mL) was added to detect viability. The cell viability was expressed as % of the control.
(§5) In FIG. 7, (A) indicates HGF cells and (B) indicates OK cells after exposure to various concentrations of compound 2-4 for 72 hours. The cell viability is determined by MTT assay and the data shown represent the mean±S.E.M (n=3).

[3] = test system: human normal oral keratinocyte cells (OK); assay: MTT viability of normal oral keratinocytes (OK); type: cell-based; conditions: 0, 25, 50 and 100 μM, 72 hours, FIG. 7 (B)
Procedure: as §3, §4, §5

[4] = 25 mg/kg p.o. QD×30, mean ± S.E.M.
[5] = 50 mg/kg p.o. QD×30, mean ± S.E.M.
[6] = 100 mg/kg p.o. QD×30, mean ± S.E.M.

For `COc1cc(/C=C/c2ccc(OC(=O)C(C)(CO)CO)cc2)cc(OC)c1` [Compound 2-4, 4-(3,5-dimethoxystyryl)phenyl-3-hydroxy-2-(hydroxymethyl)-2-methylpropanoate], the tumor growth suppression (CAR xenograft; p.o. 25 mg/kg/day, QD×30) was “Significant tumor growth suppression”, the “weight of CAR tumor relative to vehicle control” value (CAR xenograft; p.o. 100 mg/kg/day, QD×30, FIG. 5) was 22% and the “effect on CAR tumor weight” value (CAR xenograft; p.o. 25, 50, 100 mg/kg/day, QD×30, FIG. 5) was “dose-dependent inhibitory effect”. For the same compound, the body weight change (CAR xenograft; p.o. 25, 50, 100 mg/kg/day, QD×30, FIG. 6) was “no significant body weight change”, the “effect on CAR tumor size” value (CAR xenograft; p.o. 25, 50, 100 mg/kg/day, QD×30, FIGS. 3 and 4) was “dose-dependent inhibitory effect” and the solubility (Water solubility assay) was 18 µg/mL (≈ 48.3 µM). The Albumin [1, 4] was 3.666 ± 0.052 g/dL, the Blood urea nitrogen [1, 4] was 28.200 ± 5.784 mg/dL and the Creatinine [1, 4] was 1.133 ± 0.109 mg/dL. For the same compound, the Glucose [1, 4] was 181.333 ± 32.067 mg/dL, the “Total Protein” value [1, 4] was 5.383 ± 0.117 g/dL and the Uric acid [1, 4] was 4.567 ± 0.784 mg/dL. For the same compound, the Albumin [1, 5] was 3.417 ± 0.075 g/dL, the Blood urea nitrogen [1, 5] was 30.950 ± 1.265 mg/dL and the Creatinine [1, 5] was 0.910 ± 0.077 mg/dL. The Glucose [1, 5] was 172.500 ± 6.504 mg/dL, the “Total Protein” value [1, 5] was 5.583 ± 0.376 g/dL and the Uric acid [1, 5] was 5.450 ± 0.878 mg/dL. It also gave an Albumin [1, 6] of 3.400 ± 0.089 g/dL, a Blood urea nitrogen [1, 6] of 29.250 ± 3.855 mg/dL and a Creatinine [1, 6] of 0.830 ± 0.128 mg/dL. For the same compound, the Glucose [1, 6] was 196.500 ± 8.643 mg/dL, the “Total Protein” value [1, 6] was 5.283 ± 0.194 g/dL and the Uric acid [1, 6] was 5.050 ± 1.882 mg/dL. For the same compound, the “toxicity when orally administered” value ([1]; CAR xenograft mice, oral, 30 days) was “very low toxicity”, the “blood analysis result versus vehicle control mice” value ([1]; after 30 days of oral treatment, Table 2) was “no significant difference in blood analysis result” and the “antiproliferative effect on CAR cells” value (CAR cells; 24, 48 and 72 hours, FIG. 1) was “concentration- and time-dependent antiproliferative effect”. For the same compound, the IC50 (CAR cells; 48 hours, read-out: CAR (IC50 (μM)) 48 hours) was 73 µM, the IC50 (CAR cells; 72 hours, Example 18 text, read-out: IC50 after 72 hours of treatment (FIG. 1)) was 50 µM and the IC50 (CAR cells; 72 hours, read-out: CAR (IC50 (μM)) 72 hours) was 45.2 µM. The “inhibition on cell viability in Hep3B cells” value (Hep3B cells; 48 and 72 hours, FIG. 2) was “concentration-dependent inhibition on cell viability”, the “anticancer activity compared with resveratrol and pterostilbene” value (Hep3B cells; Hep 3B and CAR cells, Table 1) was “more potent anticancer activity than resveratrol and pterostilbene” and the IC50 (Hep3B cells; 48 hours, Example 19 text, read-out: IC50 after 48 hours of treatment (FIG. 2)) was 50 µM. For the same compound, the IC50 (Hep3B cells; 48 hours, read-out: Hep 3B (IC50 (μM)) 48 hours) was 63.5 µM, the IC50 (Hep3B cells; 72 hours, read-out: Hep 3B (IC50 (μM)) 72 hours) was 43.8 µM and the “cell viability of HGF cells” value [2] was “no viability impact is observed”. The “cell viability of OK cells” value [3] was “no viability impact is observed”.
